Consider 2 molecules from patent US8551496B2, “Boswellia low polar gum resin extract and its synergistic compositions” (priority 2010, dated 2013).

Test [1] deals with Freund's Complete Adjuvant induced paw edema. The test can be described thus: Freund's Complete Adjuvant induced arthritis model, inhibition of paw edema. It counts as in vivo. As to conditions: 10 mg/kg body weight daily (positive control); FCA-induced Sprague Dawley rats; vs CMC control.
Test [2] has as its target 5-lipoxygenase (5-LOX). As to conditions: read-out: IC50 for the inhibition of 5-LOX; background, prior art; cited from earlier work.

In the case of `C[C@]12C=CC(=O)C=C1CC[C@@H]1[C@@H]2[C@@H](O)C[C@@]2(C)[C@H]1CC[C@]2(O)C(=O)CO` [Prednisolone], in test [1], the “Reduction in Paw edema” value stood at 46%.

For the molecule “3-O-Acetyl-11-keto-β-Boswellic acid [AKBA]”, the IC50 in test [2] is 1500 nM.

In general, IC50 refers to the midpoint of a concentration-inhibition curve.
